Source: the supplement of paper PMC10307832

What was measured:
Assay in all cases: relative viability (nuclei count vs DMSO), 5 days (fraction); higher = more cells survive
[1] = compound: COC1=CC=C(C=C1)COC2=C(C=C(C=C2)CC3=CN=C(N=C3N)N)OC [GW-2580] + C[C@]1(O)C[C@@H](c2nc(-c3ccc4ccc(-c5ccccc5)nc4c3)c3c(N)nccn32)C1 [Linsitinib] (partner 1 µM)
In short: (§1)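 After 5 days of treatment, lung cancer cells in 1536-well plates were fixed and stained in a single step (final 0.05% Triton X-100, 1% formaldehyde, 1 ug/ml Hoechst) and their nuclei counted on 4× images. Treatment had been applied by pin tool the day after seeding as one drug alone or as a fixed anchor-drug dose with five library-drug doses (not always all listed) in √10 steps. Relative viability is the nuclei count of treated wells divided by that of vehicle wells, and values are medians of duplicate plates.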

[2] = compound: Cc1cnc(Nc2ccc(OCCN3CCCC3)cc2)nc1Nc1cccc(S(=O)(=O)NC(C)(C)C)c1 [Fedratinib] + Nc1nc2[nH]cc(CCc3ccc(C(=O)N[C@@H](CCC(=O)O)C(=O)O)cc3)c2c(=O)[nH]1 [Pemetrexed] (partner 0.2 µM)
In short: as §1

[3] = compound: COC1=CC=C(C=C1)COC2=C(C=C(C=C2)CC3=CN=C(N=C3N)N)OC [GW-2580] + N=C(N)NC(=N)NCCc1ccccc1 [Phenformin] (partner 250 µM)
In short: as §1

[4] = compound: COC1=CC=C(C=C1)COC2=C(C=C(C=C2)CC3=CN=C(N=C3N)N)OC [GW-2580] + COc1cccc2cc(-c3nc([C@H]4CC[C@H](C(=O)O)CC4)n4ncnc(N)c34)[nH]c12 [OSI-027] (partner 0.5 µM)
In short: as §1

[5] = compound: COC1=CC=C(C=C1)COC2=C(C=C(C=C2)CC3=CN=C(N=C3N)N)OC [GW-2580] + Cc1cc(Nc2cc(N3CCN(C)CC3)nc(Sc3ccc(NC(=O)C4CC4)cc3)n2)n[nH]1 [Tozasertib] (partner 0.1 µM)
In short: as §1

Cell Line: NCI-H1703
- relative viability ([1]; first compound 0.08 µM): 0.879
- relative viability ([1]; first compound 0.8 µM): 1.1
- relative viability ([1]; first compound 2.53 µM): 0.712
- relative viability ([1]; first compound 8 µM): 0.716

Cell Line: LCLC-103H
- relative viability ([2]; first compound 0.1 µM): 0.487
- relative viability ([2]; first compound 0.3162 µM): 0.521
- relative viability ([2]; first compound 1 µM): 0.469
- relative viability ([3]; first compound 0.08 µM): 0.345
- relative viability ([3]; first compound 0.8 µM): 0.328
- relative viability ([3]; first compound 2.53 µM): 0.331
- relative viability ([3]; first compound 8 µM): 0.376
- relative viability ([4]; first compound 0.08 µM): 0.482
- relative viability ([4]; first compound 0.8 µM): 0.434
- relative viability ([4]; first compound 2.53 µM): 0.482
- relative viability ([4]; first compound 8 µM): 0.458
- relative viability ([5]; first compound 0.08 µM): 0.555
- relative viability ([5]; first compound 0.8 µM): 0.432
- relative viability ([5]; first compound 2.53 µM): 0.484
- relative viability ([5]; first compound 8 µM): 0.396
- relative viability ([1]; first compound 0.08 µM): 1.07
- relative viability ([1]; first compound 0.8 µM): 1.45
- relative viability ([1]; first compound 2.53 µM): 1.08
- relative viability ([1]; first compound 8 µM): 1.09

Cell Line: PC-3 [JPC-3]
- relative viability ([2]; first compound 0.1 µM): 1.04
- relative viability ([2]; first compound 0.3162 µM): 1.23
- relative viability ([2]; first compound 1 µM): 1.03
- relative viability ([3]; first compound 0.08 µM): 0.472
- relative viability ([3]; first compound 0.8 µM): 0.489
- relative viability ([3]; first compound 2.53 µM): 0.489
- relative viability ([3]; first compound 8 µM): 0.464
- relative viability ([4]; first compound 0.08 µM): 0.75
- relative viability ([4]; first compound 0.8 µM): 0.985
- relative viability ([4]; first compound 2.53 µM): 0.721
- relative viability ([4]; first compound 8 µM): 0.724
- relative viability ([5]; first compound 0.08 µM): 0.89
- relative viability ([5]; first compound 0.8 µM): 0.916
- relative viability ([5]; first compound 2.53 µM): 0.891
- relative viability ([5]; first compound 8 µM): 0.854
- relative viability ([1]; first compound 0.08 µM): 0.96
- relative viability ([1]; first compound 0.8 µM): 0.995
- relative viability ([1]; first compound 2.53 µM): 0.966
- relative viability ([1]; first compound 8 µM): 0.967

Cell Line: BEN
- relative viability ([2]; first compound 0.1 µM): 0.653
- relative viability ([2]; first compound 0.3162 µM): 0.755
- relative viability ([2]; first compound 1 µM): 0.669
- relative viability ([3]; first compound 0.08 µM): 0.266
- relative viability ([3]; first compound 0.8 µM): 0.33
- relative viability ([3]; first compound 2.53 µM): 0.255
- relative viability ([3]; first compound 8 µM): 0.317
- relative viability ([4]; first compound 0.08 µM): 0.281
- relative viability ([4]; first compound 0.8 µM): 0.273
- relative viability ([4]; first compound 2.53 µM): 0.267
- relative viability ([4]; first compound 8 µM): 0.31
- relative viability ([5]; first compound 0.08 µM): 0.684
- relative viability ([5]; first compound 0.8 µM): 0.396
- relative viability ([5]; first compound 2.53 µM): 0.577
- relative viability ([5]; first compound 8 µM): 0.492
- relative viability ([1]; first compound 0.08 µM): 1.08
- relative viability ([1]; first compound 0.8 µM): 1.04
- relative viability ([1]; first compound 2.53 µM): 0.816
- relative viability ([1]; first compound 8 µM): 0.93

Cell Line: ChaGo-K-1
- relative viability ([2]; first compound 0.1 µM): 0.273
- relative viability ([2]; first compound 0.3162 µM): 0.254
- relative viability ([2]; first compound 1 µM): 0.253
- relative viability ([3]; first compound 0.08 µM): 0.594
- relative viability ([3]; first compound 0.8 µM): 0.476
- relative viability ([3]; first compound 2.53 µM): 0.454
- relative viability ([3]; first compound 8 µM): 0.514
- relative viability ([4]; first compound 0.08 µM): 0.625
- relative viability ([4]; first compound 0.8 µM): 0.548
- relative viability ([4]; first compound 2.53 µM): 0.532
- relative viability ([4]; first compound 8 µM): 0.575
- relative viability ([5]; first compound 0.08 µM): 0.257
- relative viability ([5]; first compound 0.8 µM): 0.224
- relative viability ([5]; first compound 2.53 µM): 0.233
- relative viability ([5]; first compound 8 µM): 0.234

Cell Line: Calu-6
- relative viability ([1]; first compound 0.08 µM): 1.11
- relative viability ([1]; first compound 0.8 µM): 0.938
- relative viability ([1]; first compound 2.53 µM): 0.913
- relative viability ([1]; first compound 8 µM): 1.02

Cell Line: NCI-H1648
- relative viability ([2]; first compound 0.1 µM): 0.598
- relative viability ([2]; first compound 0.3162 µM): 0.675
- relative viability ([2]; first compound 1 µM): 0.328
- relative viability ([4]; first compound 0.08 µM): 0.27
- relative viability ([4]; first compound 8 µM): 0.231
- relative viability ([5]; first compound 0.08 µM): 0.427
- relative viability ([5]; first compound 8 µM): 0.429

Cell Line: EBC-1
- relative viability ([1]; first compound 0.08 µM): 1.27
- relative viability ([1]; first compound 0.8 µM): 0.991
- relative viability ([1]; first compound 2.53 µM): 0.871
- relative viability ([1]; first compound 8 µM): 0.743

Cell Line: NCI-H1299
- relative viability ([1]; first compound 0.08 µM): 1.09
- relative viability ([1]; first compound 0.8 µM): 0.969
- relative viability ([1]; first compound 2.53 µM): 0.952
- relative viability ([1]; first compound 8 µM): 0.907

Cell Line: NCI-H2342
- relative viability ([2]; first compound 0.1 µM): 0.801
- relative viability ([2]; first compound 0.3162 µM): 0.765
- relative viability ([2]; first compound 1 µM): 0.775
- relative viability ([3]; first compound 0.08 µM): 0.57
- relative viability ([3]; first compound 0.8 µM): 0.725
- relative viability ([3]; first compound 2.53 µM): 0.509
- relative viability ([3]; first compound 8 µM): 0.567
- relative viability ([4]; first compound 0.08 µM): 0.574
- relative viability ([4]; first compound 0.8 µM): 0.671
- relative viability ([4]; first compound 2.53 µM): 0.519
- relative viability ([4]; first compound 8 µM): 0.62
- relative viability ([5]; first compound 0.08 µM): 0.557
- relative viability ([5]; first compound 0.8 µM): 0.498
- relative viability ([5]; first compound 2.53 µM): 0.516
- relative viability ([5]; first compound 8 µM): 0.418

Cell Line: IA-LM
- relative viability ([1]; first compound 0.08 µM): 0.693
- relative viability ([1]; first compound 0.8 µM): 1.29
- relative viability ([1]; first compound 2.53 µM): 0.55
- relative viability ([1]; first compound 8 µM): 0.319

Cell Line: NCI-H2170
- relative viability ([2]; first compound 0.1 µM): 0.284
- relative viability ([2]; first compound 0.3162 µM): 0.27
- relative viability ([2]; first compound 1 µM): 0.253
- relative viability ([3]; first compound 0.08 µM): 0.442
- relative viability ([3]; first compound 0.8 µM): 0.345
- relative viability ([3]; first compound 2.53 µM): 0.37
- relative viability ([3]; first compound 8 µM): 0.336
- relative viability ([4]; first compound 0.08 µM): 0.757
- relative viability ([4]; first compound 0.8 µM): 0.745
- relative viability ([4]; first compound 2.53 µM): 0.735
- relative viability ([4]; first compound 8 µM): 0.748
- relative viability ([5]; first compound 0.08 µM): 1.04
- relative viability ([5]; first compound 0.8 µM): 0.816
- relative viability ([5]; first compound 2.53 µM): 0.777
- relative viability ([5]; first compound 8 µM): 0.677

Cell Line: NCI-H727
- relative viability ([3]; first compound 0.08 µM): 0.662
- relative viability ([3]; first compound 0.8 µM): 0.574
- relative viability ([3]; first compound 2.53 µM): 0.499
- relative viability ([3]; first compound 8 µM): 0.652
- relative viability ([4]; first compound 0.08 µM): 0.595
- relative viability ([4]; first compound 0.8 µM): 0.761
- relative viability ([4]; first compound 2.53 µM): 0.629
- relative viability ([4]; first compound 8 µM): 0.575
- relative viability ([5]; first compound 0.08 µM): 0.67
- relative viability ([5]; first compound 0.8 µM): 0.621
- relative viability ([5]; first compound 2.53 µM): 0.515
- relative viability ([5]; first compound 8 µM): 0.551
- relative viability ([1]; first compound 0.08 µM): 0.241
- relative viability ([1]; first compound 0.8 µM): 0.298
- relative viability ([1]; first compound 2.53 µM): 0.226
- relative viability ([1]; first compound 8 µM): 0.284
